Where two headings read alike, the source gives them in different places.
Legend:
MOLM-13 = experiment: Cell proliferation of cancerous cell lines; type: cell-based; conditions: Homo sapiens; MOLM-13 cell line; read-out: Antineoplastic effect on cell proliferation, IC50
MonoMac = experiment: Cell proliferation of cancerous cell lines; type: cell-based; conditions: MonoMac cell line; read-out: Antineoplastic effect on cell proliferation, IC50
KG1a = experiment: Cell proliferation of cancerous cell lines; type: cell-based; conditions: Homo sapiens, KG-1a; KG1a cell line; read-out: Antineoplastic effect on cell proliferation, IC50
HL-60 = experiment: Cell proliferation of cancerous cell lines; type: cell-based; conditions: Homo sapiens; HL-60 cell line; read-out: Antineoplastic effect on cell proliferation, IC50
KG1 = experiment: Cell proliferation of cancerous cell lines; type: cell-based; conditions: Homo sapiens, KG-1; KG1 cell line; read-out: Antineoplastic effect on cell proliferation, IC50
KU-812 = experiment: Cell proliferation of cancerous cell lines; type: cell-based; conditions: Homo sapiens, KU812; KU-812 cell line; read-out: Antineoplastic effect on cell proliferation, IC50
EOL1 = experiment: Cell proliferation of cancerous cell lines; type: cell-based; conditions: Homo sapiens; EOL1 cell line; read-out: Antineoplastic effect on cell proliferation, IC50
AML5 = experiment: Cell proliferation of cancerous cell lines; type: cell-based; conditions: AML5 cell line; read-out: Antineoplastic effect on cell proliferation, IC50
in vivo = conditions: mouse
Protocol: PK assays were performed in mice (n=3). […] The following pharmacokinetic parameters were calculated.
The compounds were orally administered at 20 mg/kg and plasma samples were collected at 15, 30 minutes and 1, 2, 4, 6 and 8 hours after administration. The following pharmacokinetic parameters were calculated.

KBM7 = experiment: Cell proliferation of cancerous cell lines; type: cell-based; conditions: KBM-7; KBM7 cell line; read-out: Antineoplastic effect on cell proliferation, IC50
NB-4 = experiment: Cell proliferation of cancerous cell lines; type: cell-based; conditions: Homo sapiens; NB-4 cell line; read-out: Antineoplastic effect on cell proliferation, IC50
MUTZ-2 = experiment: Cell proliferation of cancerous cell lines; type: cell-based; conditions: MUTZ-2 cell line; read-out: Antineoplastic effect on cell proliferation, IC50
UT-7 = experiment: Cell proliferation of cancerous cell lines; type: cell-based; conditions: Homo sapiens, UT7; UT-7 cell line; read-out: Antineoplastic effect on cell proliferation, IC50
LY-1 = experiment: Cell proliferation of cancerous cell lines; type: cell-based; conditions: Ly1; LY-1 cell line; read-out: Antineoplastic effect on cell proliferation, IC50
AML samples = experiment: Cell proliferation of cancerous samples from patients
AML3 = experiment: Cell proliferation of cancerous cell lines; type: cell-based; conditions: AML3 cell line; read-out: Antineoplastic effect on cell proliferation, IC50
AML4 = experiment: Cell proliferation of cancerous cell lines; type: cell-based; conditions: AML4 cell line; read-out: Antineoplastic effect on cell proliferation, IC50
SKNO = experiment: Cell proliferation of cancerous cell lines; type: cell-based; conditions: SKNO cell line; read-out: Antineoplastic effect on cell proliferation, IC50
Z-138 = experiment: Cell proliferation of cancerous cell lines; type: cell-based; conditions: Homo sapiens; Z-138 cell line; read-out: Antineoplastic effect on cell proliferation, IC50
MUTZ-8 = experiment: Cell proliferation of cancerous cell lines; type: cell-based; conditions: MUTZ-8 cell line; read-out: Antineoplastic effect on cell proliferation, IC50
CB = experiment: Cell proliferation, CB sample of Table 2; conditions: read-out: Antineoplastic effect on cell proliferation, IC50

IC50 (MOLM-13): 0.25 to 1 µM
IC50 (MonoMac): 1 to 10 µM
IC50 (KG1a): 1 to 10 µM
IC50 (HL-60): 1 to 10 µM
IC50 (KG1): 1 to 10 µM
IC50 (KU-812): 1 to 10 µM
IC50 (EOL1): 0.25 to 1 µM
IC50 (AML5): 1 to 10 µM
bioavailability (in vivo; female, po, 20 mg/kg): 39%
bioavailability (in vivo; male, po, 20 mg/kg): 31%
Vd (in vivo; iv, 1 mg/kg): 14.3 L/kg
clearance (in vivo; iv, 1 mg/kg): 109 mL/min/kg
half-life (in vivo; iv, 1 mg/kg): 1.9 h
AUC (in vivo; po, 20 mg/kg): 2.45 µM·h
Cmax (in vivo; po, 20 mg/kg): 200 nM
Tmax (in vivo; po, 20 mg/kg): 4 h
IC50 (KBM7): > 10 µM
IC50 (NB-4): 1 to 10 µM
IC50 (MUTZ-2): 1 to 10 µM
IC50 (UT-7): > 10 µM
IC50 (LY-1): > 10 µM
IC50 (AML samples; read-out: Antineoplastic effect on cell proliferation, IC50, AML sample 04H063): 1 to 10 µM
IC50 (AML samples; read-out: Antineoplastic effect on cell proliferation, IC50, AML sample 05H094): 1 to 10 µM
IC50 (AML samples; read-out: Antineoplastic effect on cell proliferation, IC50, AML sample 05H149): 1 to 10 µM
IC50 (AML samples; read-out: Antineoplastic effect on cell proliferation, IC50, AML sample 06H045): 1 to 10 µM
IC50 (AML samples; read-out: Antineoplastic effect on cell proliferation, IC50, AML sample 06H088): > 10 µM
IC50 (AML samples; read-out: Antineoplastic effect on cell proliferation, IC50, AML sample 06H117): 1 to 10 µM
IC50 (AML samples; read-out: Antineoplastic effect on cell proliferation, IC50, AML sample 07H005): 1 to 10 µM
IC50 (AML samples; read-out: Antineoplastic effect on cell proliferation, IC50, AML sample 07H038): 1 to 10 µM
IC50 (AML samples; read-out: Antineoplastic effect on cell proliferation, IC50, AML sample 07H045): > 10 µM
IC50 (AML samples; read-out: Antineoplastic effect on cell proliferation, IC50, AML sample 07H125): 1 to 10 µM
IC50 (AML samples; read-out: Antineoplastic effect on cell proliferation, IC50, AML sample 07H135): 1 to 10 µM
IC50 (AML samples; read-out: Antineoplastic effect on cell proliferation, IC50, AML sample 07H151): > 10 µM
IC50 (AML samples; read-out: Antineoplastic effect on cell proliferation, IC50, AML sample 08H018): > 10 µM
IC50 (AML samples; read-out: Antineoplastic effect on cell proliferation, IC50, AML sample 09H010): 1 to 10 µM
IC50 (AML samples; read-out: Antineoplastic effect on cell proliferation, IC50, AML sample 09H046): > 10 µM
IC50 (AML samples; read-out: Antineoplastic effect on cell proliferation, IC50, AML sample 09H079): 1 to 10 µM
IC50 (AML samples; read-out: Antineoplastic effect on cell proliferation, IC50, AML sample 09H115): 1 to 10 µM
IC50 (AML samples; read-out: Antineoplastic effect on cell proliferation, IC50, AML sample 10H022): 0.25 to 1 µM
IC50 (AML samples; read-out: Antineoplastic effect on cell proliferation, IC50, AML sample 10H127): 1 to 10 µM
IC50 (AML samples; read-out: Antineoplastic effect on cell proliferation, IC50, AML sample 11H002): 1 to 10 µM
IC50 (AML samples; read-out: Antineoplastic effect on cell proliferation, IC50, AML sample 11H046): 0.25 to 1 µM
IC50 (AML samples; read-out: Antineoplastic effect on cell proliferation, IC50, AML sample 11H103): 1 to 10 µM
IC50 (AML samples; read-out: Antineoplastic effect on cell proliferation, IC50, AML sample 12H045): 1 to 10 µM
IC50 (AML samples; read-out: Antineoplastic effect on cell proliferation, IC50, AML sample 12H058): 1 to 10 µM
IC50 (AML samples; read-out: Antineoplastic effect on cell proliferation, IC50, AML sample 12H096): > 10 µM
IC50 (AML samples; read-out: Antineoplastic effect on cell proliferation, IC50, AML sample 12H106): > 10 µM
IC50 (AML samples; read-out: Antineoplastic effect on cell proliferation, IC50, AML sample 12H151): 1 to 10 µM
IC50 (AML samples; read-out: Antineoplastic effect on cell proliferation, IC50, AML sample 13H100): 1 to 10 µM
IC50 (AML samples; read-out: Antineoplastic effect on cell proliferation, IC50, AML sample 13H150): 1 to 10 µM
IC50 (AML3): 1 to 10 µM
IC50 (AML4): 0.25 to 1 µM
IC50 (SKNO): 1 to 10 µM
IC50 (Z-138): 1 to 10 µM
IC50 (MUTZ-8): > 10 µM
Structure (SMILES): Cn1nnc(-c2ccc3c(c2)[nH]c2ncnc(NCCCN4CCCCC4)c23)n1 [UM681]
IC50 (CB): 1 to 10 µM

Source: patent US20230073512A1, “MODULATORS OF CULLIN 3 ADAPTOR KBTBD4 AS ANTI-CANCER COMPOUNDS” (UNIVERSITE DE MONTREAL, priority 2019, published 2023)
